Experimental data: PMC12717121, “ABA-independent PP2C-binding in PYLs traces to bacterial origins and persists in land plants” (Nature Communications, 2025)

What was measured:
PP2CA (AtPP2CA) = target: T1, PP2CA (AtPP2CA) (Arabidopsis thaliana, UniProt P49598); assay: phosphatase assay, A405; format: biochemical; conditions: 50 mM pNPP, 0.5 μM PP2C, 33 mM Tris-OAc pH 7.9, 25 mM Mg(OAc)2
T1 construct: GST-PP2CA (pGEX-6P-1), E. coli BL21(DE3)
T1 sequence (P49598 1-399): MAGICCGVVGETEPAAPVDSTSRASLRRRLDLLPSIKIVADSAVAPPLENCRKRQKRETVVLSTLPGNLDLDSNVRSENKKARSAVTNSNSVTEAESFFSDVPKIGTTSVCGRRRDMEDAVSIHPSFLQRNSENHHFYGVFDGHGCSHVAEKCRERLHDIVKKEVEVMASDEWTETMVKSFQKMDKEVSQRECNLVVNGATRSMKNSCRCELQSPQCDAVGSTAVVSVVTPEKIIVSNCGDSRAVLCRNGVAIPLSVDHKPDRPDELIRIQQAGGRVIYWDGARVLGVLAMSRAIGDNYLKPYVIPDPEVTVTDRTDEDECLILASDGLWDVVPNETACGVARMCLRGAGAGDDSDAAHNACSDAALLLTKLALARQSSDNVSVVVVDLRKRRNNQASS

ABI1 (AtABI1) = target: T2, ABI1 (AtABI1) (Arabidopsis thaliana, UniProt P49597); assay: phosphatase assay, A405; format: biochemical; conditions: 50 mM pNPP, 0.5 μM PP2C, 33 mM Tris-OAc pH 7.9, 25 mM Mg(OAc)2
T2 construct: GST-ABI1 (pGEX-6P-1), E. coli BL21(DE3)
T2 sequence (P49597 1-434): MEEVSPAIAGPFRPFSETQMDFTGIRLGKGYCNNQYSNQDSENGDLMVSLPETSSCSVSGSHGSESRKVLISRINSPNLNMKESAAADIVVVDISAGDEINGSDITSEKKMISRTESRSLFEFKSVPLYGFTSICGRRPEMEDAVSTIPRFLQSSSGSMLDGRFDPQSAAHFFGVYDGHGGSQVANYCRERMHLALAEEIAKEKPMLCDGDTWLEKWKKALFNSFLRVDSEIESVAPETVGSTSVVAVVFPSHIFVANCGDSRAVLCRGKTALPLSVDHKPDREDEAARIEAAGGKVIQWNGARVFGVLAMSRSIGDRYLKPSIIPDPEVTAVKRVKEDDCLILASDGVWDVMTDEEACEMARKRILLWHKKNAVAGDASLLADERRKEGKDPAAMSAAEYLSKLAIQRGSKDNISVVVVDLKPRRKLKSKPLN

Structure (SMILES): O=[N+]([O-])c1ccc(OP(=O)(O)O)cc1 [pNPP]
- phosphatase assay, A405 (PP2CA (AtPP2CA)): Initial reaction velocities for GST-PP2Cs were measured using the synthetic phosphatase substrate pNPP
- phosphatase assay, A405 (ABI1 (AtABI1)): Initial reaction velocities for GST-PP2Cs were measured using the synthetic phosphatase substrate pNPP
